Results from patent US7811997B2, “Composition containing total triterpenoid sapogenins extracted from bamboo, and the preparation method and use thereof” (priority 2002, dated 2010).
Like-named read-outs stand apart in the source and are kept apart here.

Columns and labels:
[1] = test system: P388 mouse leukemia cells; assay: Growth inhibition of P388 cells (MTT reduction method, 48 h); assay type: cell-based
Description: […] growth […] The effect time was 48 h and 72 h, respectively.
(§1) 10^−5, 10^−6 and 10^−7 mol/L were determined as three critical levels. Invalid, weak effect and strong effect were determined as three evaluation indices.

[2] = test system: A549 human lung adenocarcinoma cells; assay: Growth inhibition of A549 cells (SRB protein coloring method, 72 h); assay type: cell-based
Description: Sulforhodamine B (SRB) protein staining method and microculture tetrozolium (MTT) reduction method were used to measure the growth inhibitory effects of tumor cells by EZR2002 with the test objects of P388 mouse leukemia cells and A549 human lung adenocarcinoma cells, respectively. The effect time was 48 h and 72 h, respectively.
as §1

A375 (human malanoma) = assay: MTT proliferation inhibition, A375 cells; assay type: cell-based; conditions: Homo sapiens, read-out: Inhibitory rate (%)
Description: (§2) The Silica Gel Column Chromatography and Countercurrent Chromatography preparation techniques were used to obtain Friedelin monomer extracted from EZR2002 for the sake of evaluating its anti-tumor activity further. The purity of this monomer determined by GC-MS analysis was 90.5%.
(§3) A375 (human malanoma), L929 (mouse lung epithelial tumor), Hela (human cervical tumor) and THP-1 (human macrophage tumor) cell lines were used for active filtration test in this experiment. Among these cell lines, A375, L929 and Hela were adherent cells while THP-1 was a kind of suspended cell.
(§4) All cells were maintained in the RPMI-1640 culture medium supplemented with 10% fetal calf serum, penicillin (100 U/mL), streptomycin (100 μg/mL) and 0.2% NaHCO3. These supplements were dissolved in deionized water and 0.22 μm filtration membrane was used for filter sterilization. The fetal calf serum was inactivated 30 min at 56° C. prior to an experiment. Cells were cultured in a humidified incubator of 5% CO2 at 37° C.
(§5) A375, L929 and Hela cells in logarithmic growth phases were seeded at a cell density of approximately 5×10^4 cells/mL in 96 pore plates (100 μL/well). Furthermore, THP-1 cell was seeded at a cell density of approximately 1×10^5 cells/mL because it was smaller than others. Samples were added in suspended cells after culturing 4 h and in adherent cells after culturing 12 h. Friedelin was dissolved in DMSO in advance and then in the culture medium with the ultrasonic treatment, where the final concentration of the solvent in the culture medium was <0.1% (v/v). Sample was added for 7.5, 15, 30, 60, 120, 240, 480 and 960 μmol/L. Each level had four parallel pores and a negative control. The cells were incubated for 24 and 48 h and then 15 μL/well MTT solvent (5 mg/mL) was added.
(§6) The cells were incubated for 48 h, followed by centrifugation at 1500 rpm for 5 min. The supernatant was removed and 150 μL/well DMSO was added, followed by micro-vibrator shocking for 10 min and crystal dissolving completely. The absorbance (OD value) was measured by enzyme-labeled meter at 492 nm. Furthermore, the inhibitory rate of cell proliferation and the IC50 value of friedelin were counted by using Bliss method.
(§7) The de-methyl-cantharidin was taken as the positive control and the inhibitory rate of A375, L929 and Hela cells were measured by adding de-methyl-cantharidin (120 μmol/L) for 24 and 48 h (Table 8). Furthermore, the corresponding data of Friedelin were counted.

[3] = test system: L929 (mouse lung epithelial tumor); assay: MTT proliferation inhibition, L929 cells; assay type: cell-based; conditions: Mus musculus, read-out: Inhibitory rate (%)
Description: as §2, §3, §4, §5, §6, §7

[4] = test system: Hela (human cervical tumor); assay: MTT proliferation inhibition, Hela cells; assay type: cell-based; conditions: Homo sapiens, HeLa, read-out: Inhibitory rate (%)
Description: as §2, §3, §4, §5, §6, §7

[5] = compounds from bamboo shoot sheath; Sakai 1999; cited from earlier work

## CC[C@]1(O)C[C@H]2CN(CCc3c([nH]c4ccccc34)[C@@](C(=O)OC)(c3cc4c(cc3OC)N(C=O)[C@H]3[C@@](O)(C(=O)OC)[C@H](OC(C)=O)[C@]5(CC)C=CCN6CC[C@]43[C@@H]65)C2)C1 [Vincristin]
[1]
  Evaluation: Strong
[1]; sample level 10^−4 mol/L
  Inhibition rate (%): 93.1%
[1]; sample level 10^−5 mol/L
  Inhibition rate (%): 94.3%
[1]; sample level 10^−6 mol/L
  Inhibition rate (%): 94.8%
[1]; sample level 10^−7 mol/L
  Inhibition rate (%): 94.7%
[1]; sample level 10^−8 mol/L
  Inhibition rate (%): 93.2%
[2]
  Evaluation: Weak
[2]; sample level 10^−4 mol/L
  Inhibition rate (%): 71.3%
[2]; sample level 10^−5 mol/L
  Inhibition rate (%): 71.6%
[2]; sample level 10^−6 mol/L
  Inhibition rate (%): 66.5%
[2]; sample level 10^−7 mol/L
  Inhibition rate (%): 44.3%
[2]; sample level 10^−8 mol/L
  Inhibition rate (%): 9.6%

## O=C1OC(=O)C2C3CCC(O3)C12 (centres unmarked) [De-methyl-cantharidin, de-methyl-cantharidin, reference compound]
A375 (human malanoma); A-375, 24 h
  inhibition at 120 µM: 38.6%
A375 (human malanoma); A-375, 48 h
  inhibition at 120 µM: 50.4%
[3]; L929, 24 h
  inhibition at 120 µM: 40.5%
[3]; L929, 48 h
  inhibition at 120 µM: 34.4%
[4]; 24 h
  inhibition at 120 µM: 34.1%
[4]; 48 h
  inhibition at 120 µM: 43.7%

## O=C1c2c(O)cc(O)cc2O[C@H](c2ccc(O)c(O)c2)[C@H]1O [taxifolin]
[5]
  anti-oxidative activity relative to that of α-tocopherol: ~1%

## COc1cc(-c2cc(=O)c3c(O)cc(O)cc3o2)cc(OC)c1O [tricin]
[5]
  anti-oxidative activity relative to that of α-tocopherol: ~10%
